Measurements from patent publication US20040234588A1 (priority 2000, published 2004).
Read-outs that look alike come from different tables or passages of the source.

Key:
[1] = type: physicochemical; details: after 38 days at 4° C., HPLC
[2] = tested on: rat 9L glioma cells; type: cell-based
[3] = tested on: human glioma cells 767 SF; type: cell-based; details: for Concentration of B in the cells after 18 hrs incubation: initial B in the media 38 μg
[4] = tested on: Human glioma cell line SF-767; type: cell-based; details: cells pretreated with chloroquine 30 minutes at 37° C., nanoemulsion/p-PLL/DNA complex, two quantities
[5] = type: physicochemical

Molecule: cholesteryl 1,12-dicarba-closo-dodecaborane 1-carboxylate [BCH]
- initial BCH recovered from the formulation [1]: about 85%
- Concentration of B in the cells after 18 hrs incubation ([2]; High concentration: initial B in the media 16.5 μg/ml): 61 ± 13 μg/g cells
- Concentration of B in the cells after 18 hrs incubation ([2]; Low concentration: initial B in the media 8.25 μg/ml): 50 ± 10 μg/g cells
- uptake in FBS relative to LPDS ([3]; FBS (lipoproteins present) vs LPDS (no lipoproteins)): more than triple
- Concentration of B in the cells after 18 hrs incubation ([3]; FBS media): 57.6 ± 15.5 μg/g cells
- Concentration of B in the cells after 18 hrs incubation ([3]; LPDS media): 14.7 ± 3.5 μg/g cells

Molecule: CCN(CC)CCCC(C)Nc1ccnc2cc(Cl)ccc12 (stereo not drawn) [chloroquine]
- effect on transfection efficiency (β-galactosidase activity) [4]: greatly increased the transfection efficiency

Molecule: C[C@@H]1[C@H](O)[C@@H](C)/C=C/C=C/C=C/C=C/C=C/C=C/C=C/[C@H](O[C@@H]2O[C@H](C)[C@@H](O)[C@H](N)[C@@H]2O)C[C@@H]2O[C@](O)(C[C@@H](O)C[C@@H](O)[C@H](O)CC[C@@H](O)C[C@@H](O)CC(=O)O[C@H]1C)C[C@H](O)[C@H]2C(=O)O [AmpB, Amphotericin B]
- AmpB incorporated in the submicron emulsion system ([5]; 10 mg AmpB added to 100 mg lipids): 2.33 mg
- incorporated AmpB recovered with the first fraction ([5]; first fraction, particle size 177 nm): 72%
